Earlier results as cited in paper PMC9227013, “Synthesis, Anticancer Potential and Comprehensive Toxicity Studies of Novel Brominated Derivatives of Bacterial Biopigment Prodigiosin from Serratia marcescens ATCC 27117” (Molecules, 2022).

What was measured:
Parameters in all cases: method as in printed
WI-38-40 (fibroblasts) = details: WI-38-40, 72 h exposure; literature, ref not given; cited from earlier work
[1] = test system: HBL-100 (breast epithelial cells); details: HBL-100, 72 h exposure; literature, ref not given; cited from earlier work
breast cancer cell lines = details: breast cancer cells, 72 h exposure; literature, ref not given; cited from earlier work

cycloprodigiosin [cPG]
dose for growth inhibition (WI-38-40 (fibroblasts)): 0.73 µg/mL
dose for growth inhibition [1]: 0.57 µg/mL
IC50 (breast cancer cell lines): 0.15 to 0.20 µg/mL
